Reference: patent US20030087831A1, “1,3,4-Oxadiazolin-2-one derivatives and drugs containing these derivatives as the active ingredient” (priority 1999, published 2003)

How the values were obtained:
[1] = target: T1, Human Neutrophil Elastase (HNE) (Homo sapiens, UniProt P08246); assay: Inhibitory effects on human neutrophil elastase (HNE); assay type: biochemical; conditions: Dixon plot; substrate MeO-Suc-Ala-Ala-Pro-Val-p-nitroanilide; 0.1 M HEPES buffer pH 8.0; 37° C.
T1 sequence (P08246 30-267): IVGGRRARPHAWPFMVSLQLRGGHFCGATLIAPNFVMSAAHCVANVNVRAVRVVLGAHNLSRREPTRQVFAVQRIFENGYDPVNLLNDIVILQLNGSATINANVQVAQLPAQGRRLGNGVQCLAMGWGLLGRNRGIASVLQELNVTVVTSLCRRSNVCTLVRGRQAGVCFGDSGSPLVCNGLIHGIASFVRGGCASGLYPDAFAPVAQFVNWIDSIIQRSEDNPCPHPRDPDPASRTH
Experimental: (1) Inhibitory Effects on Human Neutrophil Elastase (HNE)
Various concentrations of test compounds or DMSO as a vehicle were added to 0.1 M HEPES buffer (pH 8.0) containing the synthetic substrate MeO-Suc-Ala-Ala-Pro-Val-p-nitroanilide (final concentration, 0.1, 0.2 or 0.4 mM), 0.5 M sodium chloride solution and 0.1% Polyethyleneglycol 6000 in a final volume of 180 μL. This mixture was pre-incubated at 37° C. for 5 minutes. Then, the reaction was started by the addition of 20 μL of each enzyme solution (final concentration, 0.2U/mL). The hydrolysis rate of substrate (mO.D./minute) was measured by continuously monitoring absorbance at 405 nm for 10 minutes at 30 seconds intervals. The Ki values were determined by Dixon plot.

[2] = system: HNE-Induced Lung Hemorrhage; assay: Inhibitory effect on HNE-induced lung hemorrhage in hamsters; assay type: in vivo, male Syrian hamsters; conditions: Mesocricetus auratus, po, 1 h; administered orally one hour before intratracheal HNE (10 U/100 μL/lung); blood volume in BALF
Experimental: (2) Inhibitory Effect on HNE-Induced Lung Hemorrhage in Hamsters Test compound or vehicle solution (Polyethyleneglycol 400:ethanol:distilled water=51:16:33) was administered orally to male Syrian hamsters. One hour after administration, animals were anesthetized with sodium pentobarbital (60 mg/kg, i.p.) and their tracheae were exposed. Saline (100 μL/lung) or HNE (10 U/100 μL/lung) were instilled intratracheally. One hour after the instillation of HNE, animals were exsanguinated by cutting the abdominal aorta. The trachea was re-exposed and cannulated, then bronchoalveolar lavage fluid (BALF) was collected by infusing and withdrawing of saline (2.5 mL/animal). Erythrocytes in 0.2 mL of BALF sample were hemolyzed by adding 1.8 mL of distilled water. The lysate was centrifuged (3000 r.p.m., 4° C., 10 minutes), and absorbance of the supernatant at 412 nm was measured spectrophotometrically to calculate blood volume in BALF using a standard curve.

Ki [1] | Structure (SMILES) | ED50 [2]
4.27 nM | COC(=O)N[C@H](C(=O)N1CCC[C@H]1C(=O)N[C@H](C(=O)c1nn(Cc2ccsc2)c(=O)o1)C(C)C)C(C)C [Example 1, (methoxycarbonyl)-L-valyl-N-[(1S)-([3-(thiophen-3-ylmethyl)-1,3,4-oxadiazolin-2-one-5-yl]carbonyl)-2-methylpropyl]-L-prolinamide] | 
3.41 nM | COC(=O)N[C@H](C(=O)N1CCC[C@H]1C(=O)N[C@H](C(=O)c1nn(-c2ccccc2)c(=O)o1)C(C)C)C(C)C [Example 2, (methoxycarbonyl)-L-valyl-N-[(1S)-([3-phenyl-1,3,4-oxadiazolin-2-one-5-yl]carbonyl)-2-methylpropyl]-L-prolinamide] | 18.6 mg/kg
